Assay [1] deals with FBXL10 (Homo sapiens (Human), UniProt Q8NHM5). Description: FBXL10 in vitro enzyme inhibition assay (AlphaScreen). The class given is biochemical. On the procedure: Reaction product was determined quantitatively by AlphaScreen detection after the addition of detection reagents anti-H3K36me1 antibody, AlphaScreen® Streptavidin-coated Donor beads, and AlphaScreen® Protein A Acceptor beads in 50 mM HEPES, pH7.3, 10 mM NaCl, 0.005% Brij35, 5 mM EDTA, 2 mg/ml BSA to final 10 μg/ml beads.
Sequence of FBXL10 (Q8NHM5 1-650): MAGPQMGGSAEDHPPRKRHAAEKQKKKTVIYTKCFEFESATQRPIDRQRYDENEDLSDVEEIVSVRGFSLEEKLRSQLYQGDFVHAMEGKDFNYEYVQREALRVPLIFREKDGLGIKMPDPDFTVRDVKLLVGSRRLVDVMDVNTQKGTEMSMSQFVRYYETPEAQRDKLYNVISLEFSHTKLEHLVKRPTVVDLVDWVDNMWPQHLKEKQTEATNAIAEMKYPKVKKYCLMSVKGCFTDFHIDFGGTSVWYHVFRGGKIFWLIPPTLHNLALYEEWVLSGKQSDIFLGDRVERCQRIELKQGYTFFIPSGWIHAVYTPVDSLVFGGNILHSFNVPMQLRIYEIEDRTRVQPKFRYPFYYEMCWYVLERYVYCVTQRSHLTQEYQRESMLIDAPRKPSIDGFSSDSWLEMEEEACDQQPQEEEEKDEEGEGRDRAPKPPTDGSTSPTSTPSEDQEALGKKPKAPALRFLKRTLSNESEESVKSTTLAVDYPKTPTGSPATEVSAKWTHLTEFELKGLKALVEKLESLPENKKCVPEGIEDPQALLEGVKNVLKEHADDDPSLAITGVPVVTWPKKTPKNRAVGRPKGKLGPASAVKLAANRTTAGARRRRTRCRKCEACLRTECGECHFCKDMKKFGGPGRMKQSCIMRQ
Plates were incubated at room temperature for 40 minutes, followed by addition of 3 μl of 50 μg/ml AlphaScreen® Streptavidin-coated Donor beads and AlphaScreen® Protein A Acceptor beads in 50 mM HEPES, pH7.3, 10 mM NaCl, 0.005% Brij35, 5 mM EDTA, 2 mg/ml BSA. Plates were read by EnVisionMultilabel Reader in AlphaScreen mode after a minimum of 2 hour or up to overnight incubation at room temperature. The AlphaScreen signal for each well was used to determine inhibition constant (IC50).

Assay [2] concerns the target JMJD2C (Homo sapiens (Human), UniProt Q9H3R0). Description: JMJD2C in vitro enzyme inhibition assay (TR-FRET). The class given is biochemical. A general note: In TR-FRET formats the signal depends on donor and acceptor labels being close together.
Experimental: Baculovirus expressed JMJD2C (GenBank Accession #BC143571, AA 2-372) was purchased from BPS Bioscience (Cat#50105).
The ability of test compounds to inhibit the activity of JMJD2C was determined in 384-well plate format under the following reaction conditions: 0.3 nM JMJD2C, 300 nM H3K9me3-biotin labeled peptide (Anaspec cat #64360), 2 μM alpha-ketoglutaric acid in assay buffer of 50 mM HEPES, pH7.3, 0.005% Brij35, 0.5 mM TCEP, 0.2 mg/ml BSA, 50 μM sodium L-ascorbate, and 2 μM ammonium iron(II) sulfate. Reaction product was determined quantitatively by TR-FRET after the addition of detection reagent Phycolink Streptavidin-allophycocyanin (Prozyme) and Europium-anti-di-methylated histone H3 lysine 9 (H3K9me2) antibody (PerkinElmer) in the presence of 5 mM EDTA in LANCE detection buffer (PerkinElmer) at a final concentration of 50 nM and 1 nM, respectively.
The assay reaction was initiated by the following: 2 μl of the mixture of 900 nM H3K9me3-biotin labeled peptide and 6 μM alpha-ketoglutaric acid with 2 μl of 11-point serial diluted inhibitor in 3% DMSO were added to each well of the plate, followed by the addition of 2 μl of 0.9 nM JMJD2C to initiate the reaction. The reaction mixture was incubated at room temperature for 30 minutes, and terminated by the addition of 6 μl of 5 mM EDTA in LANCE detection buffer containing 100 nM Phycolink Streptavidin-allophycocyanin and 2 nM Europium-anti-H3K9me2 antibody. Plates were read by EnVisionMultilabel Reader in TR-FRET mode (excitation at 320 nm, emission at 615 nm and 665 nm) after 1 hour incubation at room temperature. A ratio was calculated (665/615) for each well and fitted to determine inhibition constant (IC50).
Assay [3] deals with Jarid1A (Homo sapiens (Human), UniProt P29375). Description: Jarid1A in vitro enzyme inhibition assay (TR-FRET). The class given is biochemical. The source says:
The enzymatic assay of Jarid1A activity is based upon Time Resolved-Fluorescence Resonance Energy Transfer (TR-FRET) detection.

The target in assay [4] is Jarid1B (Homo sapiens (Human), UniProt Q9UGL1). Description: Jarid1B in vitro enzyme inhibition assay (TR-FRET). The class given is biochemical.
Sequence of Jarid1B (Q9UGL1 2-751): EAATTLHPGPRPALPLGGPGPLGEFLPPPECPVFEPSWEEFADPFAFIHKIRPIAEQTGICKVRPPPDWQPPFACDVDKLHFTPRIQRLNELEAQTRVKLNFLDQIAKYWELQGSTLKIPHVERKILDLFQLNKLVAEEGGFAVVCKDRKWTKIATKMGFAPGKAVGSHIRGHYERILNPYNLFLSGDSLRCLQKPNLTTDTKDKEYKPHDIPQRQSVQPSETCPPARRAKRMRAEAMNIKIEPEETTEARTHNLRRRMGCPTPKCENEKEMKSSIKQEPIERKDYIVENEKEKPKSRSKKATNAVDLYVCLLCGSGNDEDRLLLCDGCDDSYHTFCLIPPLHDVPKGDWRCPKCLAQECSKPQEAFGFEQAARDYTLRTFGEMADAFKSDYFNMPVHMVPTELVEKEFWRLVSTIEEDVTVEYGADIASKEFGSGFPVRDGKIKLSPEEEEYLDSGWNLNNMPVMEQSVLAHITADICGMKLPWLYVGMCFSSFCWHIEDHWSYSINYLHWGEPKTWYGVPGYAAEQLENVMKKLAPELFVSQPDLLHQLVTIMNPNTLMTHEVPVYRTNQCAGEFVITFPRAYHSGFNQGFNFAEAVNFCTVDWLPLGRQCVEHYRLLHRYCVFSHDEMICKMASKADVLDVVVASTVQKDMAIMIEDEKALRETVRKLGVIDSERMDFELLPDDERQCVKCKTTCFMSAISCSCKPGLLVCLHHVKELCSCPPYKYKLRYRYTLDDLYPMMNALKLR
Experimental: (§1) This assay determines the ability of a test compound to inhibit Jarid1A, Jarid1B, JMJD2C, and JMJD2A demethylase activity.
The ability of test compounds to inhibit the activity of Jarid1B was determined in 384-well plate format under the following reaction conditions: 0.8 nM Jarid1B, 300 nM H3K4me3-biotin labeled peptide (Anaspec cat #64357), 2 μM alpha-ketoglutaric acid in assay buffer of 50 mM HEPES, pH7.3, 0.005% Brij35, 0.5 mM TCEP, 0.2 mg/ml BSA, 50 μM sodium L-ascorbate, and 2 μM ammonium iron(II) sulfate. Reaction product was determined quantitatively by TR-FRET after the addition of detection reagent Phycolink Streptavidin-allophycocyanin (Prozyme) and Europium-anti-mono- or di-methylated histone H3 lysine 4 (H3K4me1-2) antibody (PerkinElmer) in the presence of 5 mM EDTA in LANCE detection buffer (PerkinElmer) at a final concentration of 25 nM and 1 nM, respectively.
The assay reaction was initiated by the following: 2 μl of the mixture of 900 nM H3K4me3-biotin labeled peptide and 6 μM alpha-ketoglutaric acid with 2 μl of 11-point serial diluted inhibitor in 3% DMSO was added to each well of the plate, followed by the addition of 2 μl of 2.4 nM Jarid1B to initiate the reaction. The reaction mixture was incubated at room temperature for 30 minutes, and terminated by the addition of 6 μl of 5 mM EDTA in LANCE detection buffer containing 50 nM Phycolink Streptavidin-allophycocyanin and 2 nM Europium-anti-H3K4me1-2 antibody. Plates were read by EnVisionMultilabel Reader in TR-FRET mode (excitation at 320 nm, emission at 615 nm and 665 nm) after 1 hour incubation at room temperature. A ratio was calculated (665/615) for each well and fitted to determine inhibition constant (IC50).
Assay [5] has as its target JMJD2A (Homo sapiens (Human), UniProt O75164). Description: JMJD2A in vitro enzyme inhibition assay (TR-FRET). Conditions: read-out: JMJD2A IC50.
Experimental: as §1
Reaction product was determined quantitatively by TR-FRET after the addition of detection reagent Phycolink Streptavidin-allophycocyanin (Prozyme) and Europium-anti-di-methylated histone H3 lysine 9 (H3K9me2) antibody (PerkinElmer) in the presence of 5 mM EDTA in LANCE detection buffer (PerkinElmer) at a final concentration of 50 nM and 1 nM, respectively.
The assay reaction was initiated by the following: 2 μl of the mixture of 900 nM H3K9me3-biotin labeled peptide and 6 μM alpha-ketoglutaric acid with 2 μl of 11-point serial diluted inhibitor in 3% DMSO were added to each well of plate, followed by the addition of 2 μl of 6 nM JMJD2A to initiate the reaction. The reaction mixture was incubated at room temperature for 30 minutes, and terminated by the addition of 6 μl of 5 mM EDTA in LANCE detection buffer containing 100 nM Phycolink Streptavidin-allophycocyanin and 2 nM Europium-anti-H3K9me2 antibody.

In general, IC50 refers to the concentration that gives 50% inhibition.

Sequence of JMJD2C (Q9H3R0 2-372): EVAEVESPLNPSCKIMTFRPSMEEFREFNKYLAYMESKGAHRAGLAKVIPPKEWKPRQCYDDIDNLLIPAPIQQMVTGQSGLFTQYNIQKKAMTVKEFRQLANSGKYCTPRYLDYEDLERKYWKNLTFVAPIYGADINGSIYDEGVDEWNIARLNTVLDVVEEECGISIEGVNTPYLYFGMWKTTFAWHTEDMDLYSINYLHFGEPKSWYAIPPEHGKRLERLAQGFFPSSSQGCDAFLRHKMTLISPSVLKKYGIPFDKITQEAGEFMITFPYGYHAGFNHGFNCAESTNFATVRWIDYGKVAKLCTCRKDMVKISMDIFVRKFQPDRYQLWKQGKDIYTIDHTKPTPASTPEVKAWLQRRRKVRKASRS
Sequence of Jarid1A (P29375 1-1090): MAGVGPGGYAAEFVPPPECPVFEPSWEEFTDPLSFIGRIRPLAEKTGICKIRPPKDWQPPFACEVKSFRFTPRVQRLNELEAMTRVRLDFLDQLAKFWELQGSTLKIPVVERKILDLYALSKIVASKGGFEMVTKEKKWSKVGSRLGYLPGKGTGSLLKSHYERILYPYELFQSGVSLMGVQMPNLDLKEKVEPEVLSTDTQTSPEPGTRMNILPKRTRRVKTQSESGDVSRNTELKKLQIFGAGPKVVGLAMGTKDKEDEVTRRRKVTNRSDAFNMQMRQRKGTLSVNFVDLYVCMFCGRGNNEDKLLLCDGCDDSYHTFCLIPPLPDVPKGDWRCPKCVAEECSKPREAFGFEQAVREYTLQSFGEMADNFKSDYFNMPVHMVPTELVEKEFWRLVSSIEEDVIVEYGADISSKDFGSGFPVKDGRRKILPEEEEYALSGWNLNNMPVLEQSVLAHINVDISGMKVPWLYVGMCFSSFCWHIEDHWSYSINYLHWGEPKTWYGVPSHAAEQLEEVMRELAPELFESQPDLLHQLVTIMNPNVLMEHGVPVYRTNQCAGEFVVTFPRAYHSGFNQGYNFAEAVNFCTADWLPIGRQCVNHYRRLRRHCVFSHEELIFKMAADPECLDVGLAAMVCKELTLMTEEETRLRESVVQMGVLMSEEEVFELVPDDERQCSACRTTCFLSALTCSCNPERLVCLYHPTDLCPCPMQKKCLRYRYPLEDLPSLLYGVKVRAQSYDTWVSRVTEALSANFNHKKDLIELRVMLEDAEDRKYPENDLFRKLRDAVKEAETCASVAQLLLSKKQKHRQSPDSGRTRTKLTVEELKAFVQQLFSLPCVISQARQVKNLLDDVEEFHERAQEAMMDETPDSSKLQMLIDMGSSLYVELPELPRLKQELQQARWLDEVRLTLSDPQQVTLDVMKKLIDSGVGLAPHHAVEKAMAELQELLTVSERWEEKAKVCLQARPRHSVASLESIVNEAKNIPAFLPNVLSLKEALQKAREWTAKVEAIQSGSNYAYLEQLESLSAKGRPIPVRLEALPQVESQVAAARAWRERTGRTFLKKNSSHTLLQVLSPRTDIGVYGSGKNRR
Sequence of JMJD2A (O75164 1-350): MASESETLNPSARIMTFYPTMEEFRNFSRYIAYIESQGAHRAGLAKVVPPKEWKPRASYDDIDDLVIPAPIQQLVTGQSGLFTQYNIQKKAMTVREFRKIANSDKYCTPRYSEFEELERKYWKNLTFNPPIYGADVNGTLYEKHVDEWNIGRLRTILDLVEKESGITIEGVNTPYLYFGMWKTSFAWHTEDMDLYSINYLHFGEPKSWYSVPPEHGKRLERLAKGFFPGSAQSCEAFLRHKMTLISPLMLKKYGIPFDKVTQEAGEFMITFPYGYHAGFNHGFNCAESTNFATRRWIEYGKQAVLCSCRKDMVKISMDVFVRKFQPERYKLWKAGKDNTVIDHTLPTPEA

With `Cc1cc(O)n(-c2cc(C(=O)O)ccn2)n1` [Example 1, 2-(5-hydroxy-3-methyl-1H-pyrazol-1-yl)isonicotinic acid], the IC50 was 100 to 1000 nM in assay [1], 100 to 1000 nM in assay [2], 100 to 1000 nM in assay [3] and under 100 nM in assay [4].

For `Cc1nn(-c2cc(C(=O)O)ccn2)c(O)c1C` [Example 3, 2-(5-hydroxy-3,4-dimethyl-1H-pyrazol-1-yl)isonicotinic acid], the IC50 in assay [1] was 100 to 1000 nM; in assay [2] it was 100 to 1000 nM; in assay [3] it was 100 to 1000 nM; in assay [4] it was under 100 nM.

Consider `Cc1nn(-c2cc(C(=O)O)ccn2)c(O)c1-c1ccccc1` [Example 4, 2-(5-hydroxy-3-methyl-4-phenyl-1H-pyrazol-1-yl)isonicotinic acid], for which the IC50 fell in the range of 100 to 1000 nM in assay [1], 1000 to 10000 nM in assay [2], 1000 to 10000 nM in assay [3] and 1000 to 10000 nM in assay [4].

In the case of `O=C(O)c1ccnc(-n2nc(-c3ccccc3F)cc2O)c1` [Example 5, 2-(3-(2-fluorophenyl)-5-hydroxy-1H-pyrazol-1-yl)isonicotinic acid], the IC50 in assay [1] was under 100 nM; in assay [2], 1000 to 10000 nM; in assay [3], 1000 to 10000 nM; in assay [4], 1000 to 10000 nM.

With `CCCc1cc(O)n(-c2cc(C(=O)O)ccn2)n1` [Example 6, 2-(5-hydroxy-3-propyl-1H-pyrazol-1-yl)isonicotinic acid], the IC50 in assay [1], in assay [2], in assay [3] and in assay [4] was 100 to 1000 nM in each case.

Turning to `O=C(O)c1ccnc(-n2nc(-c3ccccc3Cl)cc2O)c1` [Example 7, 2-(3-(2-chlorophenyl)-5-hydroxy-1H-pyrazol-1-yl)isonicotinic acid], the concentration for half-maximal inhibition (IC50) is under 100 nM in assay [1], over 10000 nM in assay [2], 1000 to 10000 nM in assay [3] and 1000 to 10000 nM in assay [4].

For the compound `O=C(O)c1ccnc(-n2nc(Cc3ccccc3)cc2O)c1` [Example 8, 2-(3-benzyl-5-hydroxy-1H-pyrazol-1-yl)isonicotinic acid], the IC50 in assay [1] is under 100 nM; in assay [2], 1000 to 10000 nM; in assay [3], 100 to 1000 nM; in assay [4], 100 to 1000 nM.

As for `COCc1cc(O)n(-c2cc(C(=O)O)ccn2)n1` [Example 9, 2-(5-hydroxy-3-(methoxymethyl)-1H-pyrazol-1-yl)isonicotinic acid], the IC50 in assay [1] is under 100 nM; in assay [2], 1000 to 10000 nM; in assay [3], 100 to 1000 nM; in assay [4], 100 to 1000 nM.

Take `O=C(O)c1ccnc(-n2nc(COc3ccccc3)cc2O)c1` [Example 10, 2-(5-hydroxy-3-(phenoxymethyl)-1H-pyrazol-1-yl)isonicotinic acid]: the IC50 in assay [1] is under 100 nM; in assay [2], over 10000 nM; in assay [3], 1000 to 10000 nM; in assay [4], 100 to 1000 nM.

On to `O=C(O)c1ccnc(-n2nccc2O)c1` [Example 11, 2-(5-hydroxy-1H-pyrazol-1-yl)isonicotinic acid], for which the IC50 in assay [1] was 100 to 1000 nM; in assay [2], 100 to 1000 nM; in assay [3], under 100 nM; in assay [4], under 100 nM.

Regarding `Cc1ccc(-c2ccnn2-c2cc(C(=O)O)ccn2)cc1` [Example 12, 2-(5-p-tolyl-1H-pyrazol-1-yl)isonicotinic acid], the IC50 in assay [2], in assay [3], in assay [4] and in assay [5] was 100 to 1000 nM throughout.

For `O=C(O)c1ccnc(-n2nccc2-c2ccc(F)cc2F)c1` [Example 14, 2-(5-(2,4-difluorophenyl)-1H-pyrazol-1-yl)isonicotinic acid], the IC50 in assay [2], in assay [3], in assay [4] and in assay [5] was 100 to 1000 nM in each case.

For the compound `O=C(O)c1ccnc(-n2nccc2-c2ccc(F)cc2)c1` [Example 27, 2-(5-(4-fluorophenyl)-1H-pyrazol-1-yl)isonicotinic acid], the IC50 is over 10000 nM in assay [1], 100 to 1000 nM in assay [2], 100 to 1000 nM in assay [3] and 100 to 1000 nM in assay [4].

Turning to `O=C(O)c1ccnc(-n2nccc2Cc2ccccc2)c1` [Example 32, 2-(5-benzyl-1H-pyrazol-1-yl)isonicotinic acid], the IC50 in assay [1] was 1000 to 10000 nM; in assay [2] it was over 10000 nM; in assay [3], over 10000 nM; in assay [4], over 10000 nM.

For the compound `O=C(O)c1ccnc(-n2ccc(Cc3ccccc3)n2)c1` [Example 33, 2-(3-benzyl-1H-pyrazol-1-yl)isonicotinic acid], the half-maximal inhibitory concentration (IC50) in assay [1], in assay [2], in assay [3] and in assay [4] was 1000 to 10000 nM in each case.

Take `O=C(O)c1ccnc(-n2nccc2OCc2ccc(F)cc2)c1` [Example 40, 2-{5-[(4-fluorobenzyl)oxy]-1H-pyrazol-1-yl}pyridine-4-carboxylic acid]: the half-inhibitory concentration (IC50) in assay [1] was over 10000 nM; in assay [2] it was under 100 nM; in assay [3] it was under 100 nM; in assay [4] it was under 100 nM.

On to `O=C(O)c1ccnc(-n2nccc2OCc2ccc3cn[nH]c3c2)c1` [Example 49, 2-[5-(1H-indazol-6-ylmethoxy)-1H-pyrazol-1-yl]pyridine-4-carboxylic acid], for which the IC50 lay within 100 to 1000 nM in assay [1], 1000 to 10000 nM in assay [2], 100 to 1000 nM in assay [3] and 100 to 1000 nM in assay [4].

Turning to `Cc1ccc(COc2ccnn2-c2cc(C(=O)O)ccn2)cc1` [Example 55, 2-{5-[(4-methylbenzyl)oxy]-1H-pyrazol-1-yl}pyridine-4-carboxylic acid], the IC50 was 1000 to 10000 nM in assay [1], under 100 nM in assay [2], under 100 nM in assay [3] and under 100 nM in assay [4].

Take `CCc1ccc(COc2ccnn2-c2cc(C(=O)O)ccn2)cc1` [Example 56, 2-{5-[(4-ethylbenzyl)oxy]-1H-pyrazol-1-yl}pyridine-4-carboxylic acid]: the concentration for half-maximal inhibition (IC50) is 1000 to 10000 nM in assay [1], 100 to 1000 nM in assay [2], under 100 nM in assay [3] and under 100 nM in assay [4].

On to `Cc1ccc(COc2ccnn2-c2cc(C(=O)O)ccn2)cc1Cl` [Example 92, 2-[5-[(3-chloro-4-methylphenyl)methoxy]pyrazol-1-yl]pyridine-4-carboxylic acid], for which the IC50 is 1000 to 10000 nM in assay [1], under 100 nM in assay [2], under 100 nM in assay [3] and under 100 nM in assay [4].

For `N#Cc1ccc(COc2ccnn2-c2cc(C(=O)O)ccn2)cc1` [Example 99, 2-[5-[(4-cyanophenyl)methoxy]pyrazol-1-yl]pyridine-4-carboxylic acid], the IC50 was 1000 to 10000 nM in assay [1], under 100 nM in assay [2], under 100 nM in assay [3] and under 100 nM in assay [4].

Take `O=C(O)c1ccnc(-n2nccc2OCc2ccc(Cl)cc2OCc2ccccc2)c1` [Example 105, 2-[5-[(4-chloro-2-phenylmethoxyphenyl)methoxy]pyrazol-1-yl]pyridine-4-carboxylic acid]: the IC50 in assay [1] is 100 to 1000 nM; in assay [2], 100 to 1000 nM; in assay [3], under 100 nM; in assay [4] it was under 100 nM.

With `O=C(O)c1ccnc(-n2nccc2OCc2ccc(Cl)cc2OCC2CC2)c1` [Example 106, 2-[5-[[4-chloro-2-(cyclopropylmethoxy)phenyl]methoxy]pyrazol-1-yl]pyridine-4-carboxylic acid], the IC50 in assay [1] is 1000 to 10000 nM; in assay [2], 100 to 1000 nM; in assay [3] it was under 100 nM; in assay [4], under 100 nM.

As for `O=C(O)c1ccnc(-n2nccc2OCc2ccc(Cl)cc2OCC(F)(F)F)c1` [Example 108, 2-[5-[[4-chloro-2-(2,2,2-trifluoroethoxy)phenyl]methoxy]pyrazol-1-yl]pyridine-4-carboxylic acid], the half-inhibitory concentration (IC50) is 1000 to 10000 nM in assay [1], 100 to 1000 nM in assay [2], under 100 nM in assay [3] and under 100 nM in assay [4].

As to `CN(CCc1cnn(-c2cc(C(=O)O)ccn2)c1)Cc1ccc(F)cc1` [Example 156, 2-[4-[2-[(4-fluorophenyl)methyl-methylamino]ethyl]pyrazol-1-yl]pyridine-4-carboxylic acid], the IC50 in assay [1] is over 10000 nM; in assay [2] it was under 100 nM; in assay [3], under 100 nM; in assay [4], under 100 nM.

As to `Cc1cc(F)ccc1Cc1cc(O)n(-c2cc(C(=O)O)ccn2)n1` [Example 173, 2-[3-[(4-fluoro-2-methylphenyl)methyl]-5-hydroxypyrazol-1-yl]pyridine-4-carboxylic acid], the IC50 in assay [1] is under 100 nM; in assay [2], 1000 to 10000 nM.

With `Cc1ccc(Cc2cc(O)n(-c3cc(C(=O)O)ccn3)n2)c(F)c1` [Example 174, 2-[3-[(2-fluoro-4-methylphenyl)methyl]-5-hydroxypyrazol-1-yl]pyridine-4-carboxylic acid], the IC50 in assay [1] is under 100 nM; in assay [2], 1000 to 10000 nM.

As for `O=C(O)c1ccnc(-n2nc(Cc3ccc(F)cc3F)cc2O)c1` [Example 175, 2-[3-[(2,4-difluorophenyl)methyl]-5-hydroxypyrazol-1-yl]pyridine-4-carboxylic acid], the concentration for half-maximal inhibition (IC50) in assay [1] is under 100 nM; in assay [2], 1000 to 10000 nM.

These data come from US9604961B2, “Histone demethylase inhibitors” (Celgene Quanticel Research, Inc., priority 2012, dated 2017).
